Test results published in ChEMBL document CHEMBL3769364, “Synthesis and structure-activity relationship studies of novel 3,9-substituted α-carboline derivatives with high cytotoxic activity against colorectal cancer cells” (Eur J Med Chem, 2016).
pIC50: −log10 of the molar value.

Experiments:
[1] = Cytotoxicity against human COLO205 cells after 48 hrs by MTT assay; conditions: COLO 205, 48 h
[2] = Cytotoxicity against human Hep3B cells after 48 hrs by MTT assay
Detroit 551 = assay: Cytotoxicity against human Detroit 551 cells after 48 hrs by MTT assay; conditions: Detroit 551, 48 h
A498 = assay: Cytotoxicity against human A498 cells after 48 hrs by MTT assay; conditions: A498, 48 h
[3] = Cytotoxicity against human H460 cells after 48 hrs by MTT assay; conditions: NCI-H460, 48 h
[4] = Cytotoxicity against human HL60 cells after 48 hrs by MTT assay; conditions: HL-60, 48 h

COC(=O)c1cnc2[nH]c3ccccc3c2c1
pIC50 [1]: < 4.30
pIC50 [2]: < 4.30
pIC50 (Detroit 551): < 4.30

COC(=O)c1cnc2c(c1)c1ccccc1n2Cc1ccco1
pIC50 (A498): < 4.30
pIC50 [1]: < 4.30
pIC50 [3]: < 4.30
pIC50 [2]: < 4.30
pIC50 [4]: < 4.30
pIC50 (Detroit 551): < 4.30

OCc1cnc2c(c1)c1ccccc1n2Cc1ccccc1
pIC50 (A498): < 4.30

COC(=O)c1cnc2c(c1)c1ccccc1n2Cc1cccs1
pIC50 (A498): < 4.30
pIC50 [1]: < 4.30
pIC50 [3]: < 4.30
pIC50 [2]: < 4.30
pIC50 [4]: < 4.30
pIC50 (Detroit 551): < 4.30

COc1cc(Cn2c3ccccc3c3cc(C(=O)O)cnc32)cc(OC)c1OC
pIC50 [4]: < 4.30
pIC50 (Detroit 551): < 4.30

OCc1cnc2c(c1)c1ccccc1n2Cc1ccc(F)c(F)c1
pIC50 (A498): < 4.30
pIC50 [3]: < 4.30
pIC50 [2]: < 4.30

COC(=O)c1cnc2c(c1)c1ccccc1n2Cc1ccc(Cl)cc1Cl
pIC50 (A498): < 4.30
pIC50 [1]: < 4.30
pIC50 [3]: < 4.30
pIC50 [2]: < 4.30
pIC50 [4]: < 4.30
pIC50 (Detroit 551): < 4.30

COc1cccc(Cn2c3ccccc3c3cc(CO)cnc32)c1
pIC50 (Detroit 551): < 4.30

COC(=O)c1cnc2c(c1)c1ccccc1n2Cc1cc(OC)cc(OC)c1
pIC50 (A498): < 4.30

OCc1cnc2c(c1)c1ccccc1n2Cc1ccoc1
pIC50 (A498): < 4.30
pIC50 [1]: < 4.30
pIC50 [3]: < 4.30
pIC50 [2]: < 4.30
pIC50 [4]: < 4.30
pIC50 (Detroit 551): < 4.30

COC(=O)c1cnc2c(c1)c1ccccc1n2Cc1ccc(Cl)cc1
pIC50 (A498): < 4.30
pIC50 [1]: < 4.30
pIC50 [3]: < 4.30
pIC50 [2]: < 4.30
pIC50 [4]: < 4.30
pIC50 (Detroit 551): < 4.30

COc1cc(Cn2c3ccccc3c3cc(CO)cnc32)cc(OC)c1
pIC50 (Detroit 551): < 4.30

COC(=O)c1cnc2c(c1)c1ccccc1n2Cc1cccc(Cl)c1
pIC50 (A498): < 4.30
pIC50 [1]: < 4.30
pIC50 [2]: < 4.30
pIC50 (Detroit 551): < 4.30

OCc1cnc2c(c1)c1ccccc1n2Cc1ccc(F)cc1F
pIC50 (A498): < 4.30
pIC50 [3]: < 4.30
pIC50 [2]: < 4.30
pIC50 (Detroit 551): < 4.30

COC(=O)c1cnc2c(c1)c1ccccc1n2Cc1cc(OC)c(OC)c(OC)c1
pIC50 (A498): < 4.30
pIC50 (Detroit 551): < 4.30

COC(=O)c1cnc2c(c1)c1ccccc1n2Cc1cccc(Cl)c1Cl
pIC50 (A498): < 4.30
pIC50 [1]: < 4.30
pIC50 [3]: < 4.30
pIC50 [2]: < 4.30
pIC50 (Detroit 551): < 4.30

COC(=O)c1cnc2c(c1)c1ccccc1n2Cc1ccc(Cl)c(Cl)c1
pIC50 (A498): < 4.30
pIC50 [1]: < 4.30
pIC50 [2]: < 4.30
pIC50 (Detroit 551): < 4.30

COC(=O)c1cnc2c(c1)c1ccccc1n2Cc1ccccc1
pIC50 (A498): < 4.30
pIC50 [1]: < 4.30
pIC50 [3]: < 4.30
pIC50 [2]: < 4.30
pIC50 [4]: < 4.30
pIC50 (Detroit 551): < 4.30

COC(=O)c1cnc2c(c1)c1ccccc1n2Cc1ccc(F)c(F)c1
pIC50 (A498): < 4.30
pIC50 [1]: < 4.30
pIC50 [3]: < 4.30
pIC50 [2]: < 4.30

OCc1cnc2[nH]c3ccccc3c2c1
pIC50 [4]: 4.30
pIC50 (Detroit 551): < 4.30

COC(=O)c1cnc2c(c1)c1ccccc1n2Cc1ccc2c(c1)OCO2
pIC50 (A498): < 4.30
pIC50 [1]: < 4.30
pIC50 [3]: < 4.30
pIC50 [2]: < 4.30
pIC50 [4]: < 4.30
pIC50 (Detroit 551): < 4.30

OCc1cnc2c(c1)c1ccccc1n2Cc1ccc(Cl)c(Cl)c1
pIC50 (Detroit 551): < 4.30

OCc1cnc2c(c1)c1ccccc1n2Cc1ccco1
pIC50 (A498): < 4.30
pIC50 [1]: < 4.30
pIC50 [3]: < 4.30
pIC50 [2]: < 4.30
pIC50 [4]: < 4.30
pIC50 (Detroit 551): < 4.30

COc1cc(Cn2c3ccccc3c3cc(C(=O)O)cnc32)cc(OC)c1
pIC50 [1]: < 4.30
pIC50 [3]: < 4.30
pIC50 (Detroit 551): < 4.00

COC(=O)c1cnc2c(c1)c1ccccc1n2Cc1cc(F)cc(F)c1
pIC50 (A498): < 4.30
pIC50 [1]: < 4.30
pIC50 [3]: < 4.30
pIC50 [2]: < 4.30
pIC50 [4]: < 4.30
pIC50 (Detroit 551): < 4.30

OCc1cnc2c(c1)c1ccccc1n2Cc1c(F)cccc1F
pIC50 (A498): < 4.30
pIC50 [1]: < 4.30
pIC50 [3]: < 4.30
pIC50 [2]: < 4.30

COC(=O)c1cnc2c(c1)c1ccccc1n2Cc1ccccc1Cl
pIC50 (A498): < 4.30
pIC50 [1]: < 4.30
pIC50 [3]: < 4.30
pIC50 [2]: < 4.30
pIC50 (Detroit 551): < 4.30

COc1ccc(Cn2c3ccccc3c3cc(CO)cnc32)cc1
pIC50 [3]: < 4.30
pIC50 [2]: < 4.30
pIC50 (Detroit 551): < 4.30

COC(=O)c1cnc2c(c1)c1ccccc1n2Cc1cc(F)ccc1F
pIC50 (A498): < 4.30
pIC50 [1]: < 4.30
pIC50 [3]: < 4.30
pIC50 [2]: < 4.30

OCc1cnc2c(c1)c1ccccc1n2Cc1ccc(Cl)cc1
pIC50 (A498): < 4.30
pIC50 [1]: < 4.30
pIC50 [3]: < 4.30
pIC50 (Detroit 551): < 4.30

COC(=O)c1cnc2c(c1)c1ccccc1n2Cc1ccoc1
pIC50 (A498): < 4.30
pIC50 [1]: < 4.30
pIC50 [3]: < 4.30
pIC50 [2]: < 4.30
pIC50 [4]: < 4.30
pIC50 (Detroit 551): < 4.30

COC(=O)c1cnc2c(c1)c1ccccc1n2Cc1ccc(OC)cc1
pIC50 (A498): < 4.30
pIC50 [1]: < 4.30
pIC50 [3]: < 4.30
pIC50 [2]: < 4.30
pIC50 [4]: < 4.30

COC(=O)c1cnc2c(c1)c1ccccc1n2Cc1ccsc1
pIC50 (A498): < 4.30
pIC50 [1]: < 4.30
pIC50 [3]: < 4.30
pIC50 [2]: < 4.30
pIC50 [4]: < 4.30
pIC50 (Detroit 551): < 4.30

OCc1cnc2c(c1)c1ccccc1n2Cc1ccsc1
pIC50 (A498): < 4.30
pIC50 [1]: < 4.30
pIC50 [3]: < 4.30
pIC50 [4]: < 4.30
pIC50 (Detroit 551): < 4.30

COC(=O)c1cnc2c(c1)c1ccccc1n2Cc1ccc(F)cc1F
pIC50 (A498): < 4.30
pIC50 [1]: < 4.30
pIC50 [3]: < 4.30
pIC50 [2]: < 4.30
pIC50 [4]: < 4.30
pIC50 (Detroit 551): < 4.30

OCc1cnc2c(c1)c1ccccc1n2Cc1c(Cl)cccc1Cl
pIC50 (A498): < 4.30
pIC50 [1]: < 4.30
pIC50 [4]: < 4.30

COC(=O)c1cnc2c(c1)c1ccccc1n2Cc1ccccc1F
pIC50 (A498): < 4.30
pIC50 [1]: < 4.30
pIC50 [3]: < 4.30
pIC50 [2]: < 4.30
pIC50 [4]: < 4.30
pIC50 (Detroit 551): < 4.30

OCc1cnc2c(c1)c1ccccc1n2Cc1ccc2c(c1)OCO2
pIC50 (A498): < 4.30
pIC50 [1]: < 4.30
pIC50 [3]: < 4.30
pIC50 [2]: < 4.30

O=C(O)c1cnc2c(c1)c1ccccc1n2Cc1ccccc1
pIC50 (A498): < 4.30
pIC50 [1]: < 4.30
pIC50 [3]: < 4.00
pIC50 [2]: < 4.00
pIC50 [4]: < 4.00
pIC50 (Detroit 551): < 4.00

COC(=O)c1cnc2c(c1)c1ccccc1n2Cc1c(Cl)cccc1Cl
pIC50 (A498): < 4.30
pIC50 [1]: < 4.30
pIC50 [3]: < 4.30
pIC50 [2]: < 4.30
pIC50 [4]: < 4.30
pIC50 (Detroit 551): < 4.30

COC(=O)c1cnc2c(c1)c1ccccc1n2Cc1cccc(OC)c1
pIC50 (A498): < 4.30
pIC50 [1]: < 4.30
pIC50 (Detroit 551): < 4.30

OCc1cnc2c(c1)c1ccccc1n2Cc1ccccc1Cl
pIC50 [1]: < 4.30

OCc1cnc2c(c1)c1ccccc1n2Cc1cccs1
pIC50 (A498): < 4.30
pIC50 [1]: < 4.30
pIC50 [3]: < 4.30
pIC50 [2]: < 4.30
pIC50 [4]: < 4.30
pIC50 (Detroit 551): < 4.30

COC(=O)c1cnc2c(c1)c1ccccc1n2Cc1ccc(F)cc1
pIC50 (A498): < 4.30
pIC50 [1]: < 4.30
pIC50 [3]: < 4.30
pIC50 [2]: < 4.30
pIC50 [4]: < 4.30
pIC50 (Detroit 551): < 4.30

COC(=O)c1cnc2c(c1)c1ccccc1n2Cc1c(F)cccc1F
pIC50 (A498): < 4.30
pIC50 [1]: < 4.30
pIC50 [3]: < 4.30
pIC50 [2]: < 4.30
pIC50 [4]: < 4.30
pIC50 (Detroit 551): < 4.30

OCc1cnc2c(c1)c1ccccc1n2Cc1ccc(Cl)cc1Cl
pIC50 (A498): < 4.30

OCc1cnc2c(c1)c1ccccc1n2Cc1ccc(F)cc1
pIC50 (A498): < 4.30
pIC50 [1]: < 4.30
pIC50 [3]: < 4.30
pIC50 [2]: < 4.30
pIC50 (Detroit 551): < 4.30
